Test results: patent US11639343B2, “Compounds targeting and degrading BCR-ABL protein and its antitumor application” (ShanghaiTech University, priority 2019, dated 2023)

Assays:
K562 (BCR-ABL+) cells = experiment: CCK-8 proliferation inhibition, K562 cells; assay type: cell-based, human; details: Homo sapiens, K562, 48 h, CCK-8, 48 hours of drug treatment; read-out: Proliferative inhibitory activity (IC50, nM) K562 (BCR-ABL+);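 further: Ten-point threefold dilution series starting at 10 µM, absorbance at 450 nm after 2 h with CCK-8, DMSO as negative control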
U937 (BCR-ABL-) cells = experiment: CCK-8 proliferation inhibition, U937 cells; assay type: cell-based, human; details: Homo sapiens, U-937; CCK-8, 48 hours of drug treatment, highest concentration 10 μM; read-out: Proliferative inhibitory activity (IC50, nM) U937 (BCR-ABL-);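 further: Ten-point threefold dilution series, absorbance at 450 nm after 2 h with CCK-8 reagent, DMSO as negative control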
HEK293 (BCR-ABL-) cells = experiment: CCK-8 proliferation inhibition, HEK293 cells; details: Homo sapiens, HEK293, 48 h, read-out: Proliferative inhibitory activity (IC50, nM) HEK293 (BCR-ABL-);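 further: Ten-point threefold dilution series starting at 10 µM, CCK-8 absorbance at 450 nm read after 2 h reagent incubation, DMSO-treated cells as negative control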
c-ABL protein = c-ABL protein (Homo sapiens, UniProt P00519); experiment: Western blot degradation of c-ABL in K562 cells; assay type: cell-based; parameters: Western blot was used to detect the expression of BCR-ABL and c-ABL protein in K562 cells; endogenous in cells; host or cells: K562; details: 16 hours, 1 nM-10 μM
c-ABL protein, sequence (P00519 whole entry): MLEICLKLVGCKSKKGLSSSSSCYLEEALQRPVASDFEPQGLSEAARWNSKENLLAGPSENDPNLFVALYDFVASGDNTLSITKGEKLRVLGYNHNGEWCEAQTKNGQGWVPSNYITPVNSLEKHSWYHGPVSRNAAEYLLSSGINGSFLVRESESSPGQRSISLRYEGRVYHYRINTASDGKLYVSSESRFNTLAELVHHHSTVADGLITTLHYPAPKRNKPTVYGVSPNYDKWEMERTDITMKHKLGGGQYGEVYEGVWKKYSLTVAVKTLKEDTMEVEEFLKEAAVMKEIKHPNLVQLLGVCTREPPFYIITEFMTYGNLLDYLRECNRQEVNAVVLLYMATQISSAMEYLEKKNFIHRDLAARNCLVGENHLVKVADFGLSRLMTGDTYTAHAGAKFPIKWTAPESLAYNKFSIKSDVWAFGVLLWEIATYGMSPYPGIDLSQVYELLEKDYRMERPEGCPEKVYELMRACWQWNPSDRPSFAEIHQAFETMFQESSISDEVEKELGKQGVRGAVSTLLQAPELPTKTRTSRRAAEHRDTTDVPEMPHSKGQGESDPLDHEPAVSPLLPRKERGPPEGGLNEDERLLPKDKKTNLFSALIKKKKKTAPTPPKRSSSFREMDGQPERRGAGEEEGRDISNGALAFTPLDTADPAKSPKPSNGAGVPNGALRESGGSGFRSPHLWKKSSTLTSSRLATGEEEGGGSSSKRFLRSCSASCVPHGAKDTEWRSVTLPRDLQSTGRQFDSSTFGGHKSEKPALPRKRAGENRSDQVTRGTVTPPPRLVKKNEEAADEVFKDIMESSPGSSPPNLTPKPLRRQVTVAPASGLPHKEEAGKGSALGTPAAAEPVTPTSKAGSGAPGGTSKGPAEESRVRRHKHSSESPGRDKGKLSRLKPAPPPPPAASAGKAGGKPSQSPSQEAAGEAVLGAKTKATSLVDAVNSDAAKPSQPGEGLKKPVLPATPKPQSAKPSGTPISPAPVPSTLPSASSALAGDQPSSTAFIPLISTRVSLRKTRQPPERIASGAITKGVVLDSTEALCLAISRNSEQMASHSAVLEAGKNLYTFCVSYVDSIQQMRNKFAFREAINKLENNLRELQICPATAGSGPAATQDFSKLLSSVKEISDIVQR
Experimental: (§1) (1) Cell seed: K562 cells were added to the 24 well plates, with a cell density of 3×10^5/ml and a total volume of 1.5 ml; Five concentration gradients, 1 nm, 10 nm, 100 nm, 1 μM, and 10 μM, were respectively set for PROTAD series compounds and comparative examples compounds (Dasa-6-2-2-6-VHL, Dasa-6-2-6-CRBN). […] After 16 hours of drug treatment, the cells were collected in 1.5 ml ep tube, centrifuged at 3000 rpm for 3 minutes, and then added 30 μL PBS and 30 ul 2×SDS to cell precipitated, lysate Heat at 100° C. for 5 minutes, then place on ice for 5 minutes, centrifuged at 10000 rpm for 5 minutes, and take the supernatant as the total protein extracted. The protein concentration was determined by the Bradford method. After each sample was at the same concentration, bromophenol blue was added as the sample indicator.
(§2) (2) Electrophoresis: the starting voltage of the BioRad electrophoresis instrument was 80V, and as the dye enters the separation gel, the voltage was adjusted to 120V;
(§3) (3) Film transfer: prepare filter paper and nitrocellulose membrane with the corresponding size of the gel, filter paper, and NC film were soaked in transfer electrophoresis buffer.
(§4) DC50 (concentration required to degrade protein by half) were calculated based on the intensity from western blot, and data were analyzed via Prism GraphPad with non-linear regression.

BCR-ABL protein = BCR-ABL protein (Homo sapiens, UniProt P00519); experiment: Western blot degradation of BCR-ABL in K562 cells; assay type: cell-based; parameters: Western blot was used to detect the expression of BCR-ABL and c-ABL protein in K562 cells; BCR (fusion partner, P11274); endogenous in cells; host or cells: K562; the other entry of the earlier key: BCR (P11274, Breakpoint cluster region protein); details: 16 hours, 1 nM-10 μM
BCR-ABL protein, sequence (P00519 with tags, fused parts or gaps): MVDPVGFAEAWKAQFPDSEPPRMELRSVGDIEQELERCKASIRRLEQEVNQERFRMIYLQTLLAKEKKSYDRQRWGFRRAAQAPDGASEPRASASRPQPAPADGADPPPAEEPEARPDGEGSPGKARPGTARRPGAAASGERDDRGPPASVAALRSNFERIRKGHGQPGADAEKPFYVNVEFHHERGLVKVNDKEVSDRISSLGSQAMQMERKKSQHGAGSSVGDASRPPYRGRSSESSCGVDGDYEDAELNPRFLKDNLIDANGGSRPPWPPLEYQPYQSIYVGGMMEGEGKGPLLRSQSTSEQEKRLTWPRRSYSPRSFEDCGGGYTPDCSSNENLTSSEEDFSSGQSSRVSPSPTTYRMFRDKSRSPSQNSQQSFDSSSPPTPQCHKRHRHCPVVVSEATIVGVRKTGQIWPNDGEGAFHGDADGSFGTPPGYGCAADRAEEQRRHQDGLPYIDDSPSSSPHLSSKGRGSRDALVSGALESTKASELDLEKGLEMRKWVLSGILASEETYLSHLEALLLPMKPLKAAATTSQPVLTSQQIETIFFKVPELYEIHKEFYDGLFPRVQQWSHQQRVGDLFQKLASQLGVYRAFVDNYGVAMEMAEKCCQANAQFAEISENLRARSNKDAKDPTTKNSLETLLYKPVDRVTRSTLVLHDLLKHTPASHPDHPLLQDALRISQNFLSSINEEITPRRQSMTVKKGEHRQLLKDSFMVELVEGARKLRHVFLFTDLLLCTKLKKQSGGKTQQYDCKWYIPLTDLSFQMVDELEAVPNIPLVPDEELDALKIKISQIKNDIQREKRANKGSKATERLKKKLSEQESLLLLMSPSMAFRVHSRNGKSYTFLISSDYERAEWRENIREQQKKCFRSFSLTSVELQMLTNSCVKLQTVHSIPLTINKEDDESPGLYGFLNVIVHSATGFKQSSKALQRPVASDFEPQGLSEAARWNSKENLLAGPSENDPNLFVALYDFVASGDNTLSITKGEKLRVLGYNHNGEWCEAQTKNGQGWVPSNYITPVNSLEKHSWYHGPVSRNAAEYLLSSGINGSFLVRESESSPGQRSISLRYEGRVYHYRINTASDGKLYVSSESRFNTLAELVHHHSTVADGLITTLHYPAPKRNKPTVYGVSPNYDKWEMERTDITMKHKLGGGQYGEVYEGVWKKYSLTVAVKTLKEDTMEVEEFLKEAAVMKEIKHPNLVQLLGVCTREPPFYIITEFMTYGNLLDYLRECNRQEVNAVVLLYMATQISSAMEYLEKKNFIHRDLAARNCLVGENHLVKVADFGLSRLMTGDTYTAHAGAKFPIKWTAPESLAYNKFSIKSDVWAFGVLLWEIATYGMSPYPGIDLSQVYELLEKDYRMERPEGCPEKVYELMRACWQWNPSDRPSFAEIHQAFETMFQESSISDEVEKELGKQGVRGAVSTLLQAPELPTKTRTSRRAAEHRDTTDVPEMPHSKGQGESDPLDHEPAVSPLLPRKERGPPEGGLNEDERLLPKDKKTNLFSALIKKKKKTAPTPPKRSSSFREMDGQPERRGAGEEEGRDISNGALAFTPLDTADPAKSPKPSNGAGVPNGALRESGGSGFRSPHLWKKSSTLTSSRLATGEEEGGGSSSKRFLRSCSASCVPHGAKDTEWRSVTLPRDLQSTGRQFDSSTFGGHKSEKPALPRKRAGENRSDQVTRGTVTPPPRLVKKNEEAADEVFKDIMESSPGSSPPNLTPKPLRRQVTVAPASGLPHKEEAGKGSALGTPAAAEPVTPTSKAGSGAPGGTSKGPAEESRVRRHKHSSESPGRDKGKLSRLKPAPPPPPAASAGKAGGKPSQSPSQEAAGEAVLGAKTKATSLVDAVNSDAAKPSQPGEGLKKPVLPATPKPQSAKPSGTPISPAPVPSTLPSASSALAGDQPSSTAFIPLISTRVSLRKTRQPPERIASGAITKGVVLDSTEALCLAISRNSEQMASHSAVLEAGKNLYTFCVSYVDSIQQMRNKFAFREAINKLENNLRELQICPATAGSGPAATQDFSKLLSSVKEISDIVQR
Experimental: as §1, §2, §3, §4

Compound	IC50 (K562 (BCR-ABL+) cells)	IC50 (U937 (BCR-ABL-) cells)	DC50 (c-ABL protein)	DC50 (BCR-ABL protein)	IC50 (HEK293 (BCR-ABL-) cells)
Cc1nc(Nc2ncc(C(=O)Nc3c(C)cccc3Cl)s2)cc(N2CCN(C(=O)CCOCCOCCOCCOCCC(=O)N[C@H](C(=O)N3C[C@H](O)C[C@H]3C(=O)NCc3ccc(-c4scnc4C)cc3)C(C)(C)C)CC2)n1 [SIAIS151078, N-(2-chloro-6-methylphenyl)-2-((6-(4-((S)-18-((2S,4R)-4-hydroxy-2-((4-(4-methylthiazol-5-yl)benzyl)carbamoyl)pyrrolidine-1-carbonyl)-19,19-dimethyl-16-oxo-4,7,10,13-tetraoxa-17-azaicosanoyl)piperazin-1-yl)-2-methylpyrimidin-4-yl)amino)thiazole-5-carboxamide]	2160 nM	> 10000 nM	> 1 µM	0.1 to 1 µM	> 10000 nM
COc1cc(Nc2c(C#N)cnc3cc(OCCCN4CCN(C(=O)CCOCCOCCOCCOCCOCCNc5cccc6c5C(=O)N(C5CCC(=O)NC5=O)C6=O)CC4)c(OC)cc23)c(Cl)cc1Cl (stereo not drawn) [SIAIS151161, 4-((2,4-dichloro-5-methoxyphenyl)amino)-7-(3-(4-(1-((2-(2,6-dioxopiperidin-3-yl)-1,3-dioxoisoindolin-4-yl)amino)-3,6,9,12,15-pentaoxaoctadecan-18-oyl)piperazin-1-yl)propoxy)-6-methoxyquinoline-3-carbonitrile]	7260 nM	> 10000 nM	0.1 to 1 µM	0.1 to 1 µM	> 10000 nM
Cc1nc(Nc2ncc(C(=O)Nc3c(C)cccc3Cl)s2)cc(N2CCN(C(=O)CCC(=O)N[C@H](C(=O)N3C[C@H](O)C[C@H]3C(=O)NCc3ccc(-c4scnc4C)cc3)C(C)(C)C)CC2)n1 [SIAIS151174, N-(2-chloro-6-methylphenyl)-2-((6-(4-(4-(((S)-1-((2S,4R)-4-hydroxy-2-((4-(4-methylthiazol-5-yl)benzyl)carbamoyl)pyrrolidin-1-yl)-3,3-dimethyl-1-oxobutan-2-yl)amino)-4-oxobutanoyl)piperazin-1-yl)-2-methylpyrimidin-4-yl)amino)thiazole-5-carboxamide]	78 nM	> 10000 nM	0.1 to 1 µM	0.1 to 1 µM	> 10000 nM
Cc1nc(Nc2ncc(C(=O)Nc3c(C)cccc3Cl)s2)cc(N2CCN(C(=O)CCCC(=O)N[C@H](C(=O)N3C[C@H](O)C[C@H]3C(=O)NCc3ccc(-c4scnc4C)cc3)C(C)(C)C)CC2)n1 [SIAIS151175, N-(2-chloro-6-methylphenyl)-2-((6-(4-(5-(((S)-1-((2S,4R)-4-hydroxy-2-((4-(4-methylthiazol-5-yl)benzyl)carbamoyl)pyrrolidin-1-yl)-3,3-dimethyl-1-oxobutan-2-yl)amino)-5-oxopentanoyl)piperazin-1-yl)-2-methylpyrimidin-4-yl)amino)thiazole-5-carboxamide]	87 nM	> 10000 nM	0.1 to 1 µM	0.01 to 0.1 µM	3890 nM
Cc1nc(Nc2ncc(C(=O)Nc3c(C)cccc3Cl)s2)cc(N2CCN(C(=O)CCCCC(=O)N[C@H](C(=O)N3C[C@H](O)C[C@H]3C(=O)NCc3ccc(-c4scnc4C)cc3)C(C)(C)C)CC2)n1 [SIAIS151176, N-(2-chloro-6-methylphenyl)-2-((6-(4-(6-(((S)-1-((2S,4R)-4-hydroxy-2-((4-(4-methylthiazol-5-yl)benzyl)carbamoyl)pyrrolidin-1-yl)-3,3-dimethyl-1-oxobutan-2-yl)amino)-6-oxohexanoyl)piperazin-1-yl)-2-methylpyrimidin-4-yl)amino)thiazole-5-carboxamide]	89 nM	> 10000 nM	0.1 to 1 µM	0.01 to 0.1 µM	> 10000 nM

Now from value to molecule, other results behind:

IC50 (K562 (BCR-ABL+) cells)	IC50 (U937 (BCR-ABL-) cells)	DC50 (c-ABL protein)	DC50 (BCR-ABL protein)	Compound	IC50 (HEK293 (BCR-ABL-) cells)
3130 nM	> 10000 nM	0.01 to 0.1 µM	0.01 to 0.1 µM	COc1cc(Nc2c(C#N)cnc3cc(OCCCN4CCN(C(=O)CCOCCOCCNc5cccc6c5C(=O)N(C5CCC(=O)NC5=O)C6=O)CC4)c(OC)cc23)c(Cl)cc1Cl (stereo not drawn) [SIAIS151158, 4-((2,4-dichloro-5-methoxyphenyl)amino)-7-(3-(4-(3-(2-(2-((2-(2,6-dioxopiperidin-3-yl)-1,3-dioxoisoindolin-4-yl)amino)ethoxy)ethoxy)propanoyl)piperazin-1-yl)propoxy)-6-methoxyquinoline-3-carbonitrile]	> 10000 nM
4260 nM	> 10000 nM	0.01 to 0.1 µM	0.01 to 0.1 µM	COc1cc(Nc2c(C#N)cnc3cc(OCCCN4CCN(C(=O)CCOCCOCCOCCNc5cccc6c5C(=O)N(C5CCC(=O)NC5=O)C6=O)CC4)c(OC)cc23)c(Cl)cc1Cl (stereo not drawn) [SIAIS151159, 4-((2,4-dichloro-5-methoxyphenyl)amino)-7-(3-(4-(3-(2-(2-(2-((2-(2,6-dioxopiperidin-3-yl)-1,3-dioxoisoindolin-4-yl)amino)ethoxy)ethoxy)ethoxy)propanoyl)piperazin-1-yl)propoxy)-6-methoxyquinoline-3-carbonitrile]	> 10000 nM
4650 nM	> 10000 nM	0.01 to 0.1 µM	0.01 to 0.1 µM	COc1cc(Nc2c(C#N)cnc3cc(OCCCN4CCN(C(=O)CCOCCOCCOCCOCCNc5cccc6c5C(=O)N(C5CCC(=O)NC5=O)C6=O)CC4)c(OC)cc23)c(Cl)cc1Cl (stereo not drawn) [SIAIS151160, 4-((2,4-dichloro-5-methoxyphenyl)amino)-7-(3-(4-(1-((2-(2,6-dioxopiperidin-3-yl)-1,3-dioxoisoindolin-4-yl)amino)-3,6,9,12-tetraoxapentadecan-15-oyl)piperazin-1-yl)propoxy)-6-methoxyquinoline-3-carbonitrile]	> 10000 nM
712 nM	> 10000 nM	0.01 to 0.1 µM	0.01 to 0.1 µM	COc1cc(Nc2c(C#N)cnc3cc(OCCCN4CCN(C(=O)CCCNc5cccc6c5C(=O)N(C5CCC(=O)NC5=O)C6=O)CC4)c(OC)cc23)c(Cl)cc1Cl (stereo not drawn) [SIAIS151162, 4-((2,4-dichloro-5-methoxyphenyl)amino)-7-(3-(4-(4-((2-(2,6-dioxopiperidin-3-yl)-1,3-dioxoisoindolin-4-yl)amino)butanoyl)piperazin-1-yl)propoxy)-6-methoxyquinoline-3-carbonitrile]	> 10000 nM
126 nM	> 10000 nM	0.01 to 0.1 µM	0.01 to 0.1 µM	COc1cc(Nc2c(C#N)cnc3cc(OCCCN4CCN(C(=O)CCCCNc5cccc6c5C(=O)N(C5CCC(=O)NC5=O)C6=O)CC4)c(OC)cc23)c(Cl)cc1Cl (stereo not drawn) [SIAIS151163, 4-((2,4-dichloro-5-methoxyphenyl)amino)-7-(3-(4-(5-((2-(2,6-dioxopiperidin-3-yl)-1,3-dioxoisoindolin-4-yl)amino)pentanoyl)piperazin-1-yl)propoxy)-6-methoxyquinoline-3-carbonitrile]	> 10000 nM
894 nM	> 10000 nM	0.01 to 0.1 µM	0.01 to 0.1 µM	COc1cc(Nc2c(C#N)cnc3cc(OCCCN4CCN(C(=O)CCCCCNc5cccc6c5C(=O)N(C5CCC(=O)NC5=O)C6=O)CC4)c(OC)cc23)c(Cl)cc1Cl (stereo not drawn) [SIAIS151166, 4-((2,4-dichloro-5-methoxyphenyl)amino)-7-(3-(4-(6-((2-(2,6-dioxopiperidin-3-yl)-1,3-dioxoisoindolin-4-yl)amino)hexanoyl)piperazin-1-yl)propoxy)-6-methoxyquinoline-3-carbonitrile]	> 10000 nM
3650 nM	> 10000 nM	0.01 to 0.1 µM	0.01 to 0.1 µM	COc1cc(Nc2c(C#N)cnc3cc(OCCCN4CCN(C(=O)CCCCCCNc5cccc6c5C(=O)N(C5CCC(=O)NC5=O)C6=O)CC4)c(OC)cc23)c(Cl)cc1Cl (stereo not drawn) [SIAIS151167, 4-((2,4-dichloro-5-methoxyphenyl)amino)-7-(3-(4-(7-((2-(2,6-dioxopiperidin-3-yl)-1,3-dioxoisoindolin-4-yl)amino)heptanoyl)piperazin-1-yl)propoxy)-6-methoxyquinoline-3-carbonitrile]	> 10000 nM
